Series [1] deals with MIA PaCa-2. Description: Growth inhibition of human MIAPaCa2 cells after 6 days by MTS assay. In kind it is functional. Conditions: MIA PaCa-2, 144 h. For orientation: Tetrazolium assays rely on reduction of a dye to a coloured formazan, in cell work by metabolically active cells.
A short description of series [2]: Growth inhibition of human HEK293 cells after 6 days by MTS assay. In kind it is cell-based.
In series [3] the test system is HEK293. The series is described as follows: Selectivity ratio of GI50 for human HEK293 cells to GI50 for human MIAPaCa2 cells.
Series [4] in a line: Drug uptake in human HEK293 cell nucleus using BODIPY labeled compound at 500 uM after 16 hrs by […] microscopic analysis. In kind it is ADME, cell-based. Conditions: hek293, 16 h.
Series [5] has as its system MIA PaCa-2. Description: Downregulation of histone H4A mRNA expression in human MIAPaCa2 cells at 50 uM after 72 hrs by quantitative RT-PCR analysis. It counts as functional, cell-based.
In series [6] the test system is MIA PaCa-2. The series is described as follows: Downregulation of histone H4D mRNA expression in human MIAPaCa2 cells at 50 uM after 72 hrs by quantitative RT-PCR analysis. It counts as functional, cell-based.
Series [7] has as its system MIA PaCa-2. The series is described as follows: Downregulation of histone HJK mRNA expression in human MIAPaCa2 cells at 50 uM after 72 hrs by quantitative RT-PCR analysis. In kind it is functional, cell-based.
In series [8] the test system is MIA PaCa-2. The series is described as follows: Downregulation of histone H4C mRNA expression in human MIAPaCa2 cells at 50 uM after 72 hrs by quantitative RT-PCR analysis. It counts as functional, cell-based.
In series [9] the test system is MIA PaCa-2. The series is described as follows: Downregulation of histone H4H mRNA expression in human MIAPaCa2 cells at 50 uM after 72 hrs by quantitative RT-PCR analysis. It counts as functional, cell-based.
Series [10] relates to MIA PaCa-2. Description: Downregulation of histone H4B mRNA expression in human MIAPaCa2 cells at 50 uM after 72 hrs by quantitative RT-PCR analysis. In kind it is functional, cell-based.
Series [11] relates to MIA PaCa-2. The series is described as follows: Downregulation of histone H4E mRNA expression in human MIAPaCa2 cells at 50 uM after 72 hrs by quantitative RT-PCR analysis. In kind it is functional, cell-based.
Series [12] deals with MIA PaCa-2. Description: Downregulation of histone H4L mRNA expression in human MIAPaCa2 cells at 50 uM after 72 hrs by quantitative RT-PCR analysis. In kind it is functional, cell-based.
The test system of series [13] is MIA PaCa-2. The series is described as follows: Downregulation of histone H4AB mRNA expression in human MIAPaCa2 cells at 50 uM after 72 hrs by quantitative RT-PCR analysis. In kind it is functional, cell-based.
Series [14] deals with MIA PaCa-2. Description: Downregulation of histone 4H4 mRNA expression in human MIAPaCa2 cells at 50 uM after 72 hrs by quantitative RT-PCR analysis. In kind it is functional, cell-based.
Series [15] deals with HEK293. Description: Downregulation of histone H4A mRNA expression in human HEK293 cells at 250 uM after 72 hrs by quantitative RT-PCR analysis. It counts as ADME, cell-based. The following applies: hek293, 72 h.
Series [16] relates to HEK293. The series is described as follows: Downregulation of histone H4D mRNA expression in human HEK293 cells at 250 uM after 72 hrs by quantitative RT-PCR analysis. It counts as ADME, cell-based. Conditions: hek293, 72 h.
For series [17], the system named is HEK293. Description: Downregulation of histone HJK mRNA expression in human HEK293 cells at 250 uM after 72 hrs by quantitative RT-PCR analysis. It counts as ADME, cell-based. Conditions: hek293, 72 h.
Series [18] deals with HEK293. Description: Downregulation of histone H4C mRNA expression in human HEK293 cells at 250 uM after 72 hrs by quantitative RT-PCR analysis. In kind it is ADME, cell-based. The following applies: hek293, 72 h.
Series [19] relates to HEK293. Description: Downregulation of histone H4H mRNA expression in human HEK293 cells at 250 uM after 72 hrs by quantitative RT-PCR analysis. It counts as ADME, cell-based. Conditions: hek293, 72 h.
For series [20], the system named is HEK293. The series is described as follows: Downregulation of histone H4B mRNA expression in human HEK293 cells at 250 uM after 72 hrs by quantitative RT-PCR analysis. In kind it is ADME, cell-based. The following applies: hek293, 72 h.
Series [21] deals with HEK293. The series is described as follows: Downregulation of histone H4E mRNA expression in human HEK293 cells at 250 uM after 72 hrs by quantitative RT-PCR analysis. Conditions: hek293, 72 h. In kind it is ADME, cell-based.
The test system of series [22] is HEK293. Description: Downregulation of histone H4L mRNA expression in human HEK293 cells at 250 uM after 72 hrs by quantitative RT-PCR analysis. In kind it is ADME, cell-based. Conditions: hek293, 72 h.
The subject of series [23] is HEK293. The series is described as follows: Downregulation of histone H4AB mRNA expression in human HEK293 cells at 250 uM after 72 hrs by quantitative RT-PCR analysis. It counts as ADME, cell-based. The following applies: hek293, 72 h.
In series [24] the test system is HEK293. Description: Downregulation of histone 4H4 mRNA expression in human HEK293 cells at 250 uM after 72 hrs by quantitative RT-PCR analysis. In kind it is ADME, cell-based. The following applies: hek293, 72 h.

The source made the active and inactive calls. The calls are words filed in the database; no cut-off is given here.

As for `CN(C)CCCNC(=O)CCNC(=O)c1cc(NC(=O)c2cc(NC(=O)c3cc(NC(=O)c4cc(NC(=O)[C@@H](CCNC(=O)CCCc5ccc(N(CCCl)CCCl)cc5)NC(=O)c5nc(NC(=O)CCNC(=O)c6nc(NC(=O)c7nccn7C)cn6C)cn5C)cn4C)cn3C)cn2C)cn1C`, in the series on MIA PaCa-2 [1], growth was halved (GI50) at 0.016 µM. In addition, the GI50 at 144 h in series [2] came to 0.4 µM. For the same molecule, the RatioGI50 with HEK293 [3] is 25. Further, the Drug uptake result in series [4] is “Active”. Further, the result with MIA PaCa-2 [5], in the series on MIA PaCa-2 [6], in the series with MIA PaCa-2 [7], in the series on MIA PaCa-2 [8], in the series on MIA PaCa-2 [9] and in the series with MIA PaCa-2 [10] was Active. The result in the series with MIA PaCa-2 [11], in the series on MIA PaCa-2 [12], with MIA PaCa-2 [13] and in the series with MIA PaCa-2 [14] was Active. Moreover, the Activity entry in the series with HEK293 [15], in the series with HEK293 [16], in the series with HEK293 [17], in the series with HEK293 [18], in the series on HEK293 [19] and in the series with HEK293 [20] was “Non-toxic” in each case. In addition, the Activity entry in the series on HEK293 [21], in the series with HEK293 [22], with HEK293 [23] and with HEK293 [24] was “Non-toxic” in each case.

In general, GI50 refers to the concentration that inhibits growth by half. Read a high GI50 as lower sensitivity of the cells.
